Assay results published in patent US8772504B2, “Substituted benzoxazole, benzimidazole, oxazolopyridine and imidazopyridine derivatives as gamma secretase modulators” (Janssen Pharmaceuticals, Inc., priority 2009, dated 2014).

What was measured:
Format in all cases: cell-based
[1] = system: Aβ42; experiment: Screening for γ-secretase-modulating activity, Method 2: Aβ42 Alphalisa on SKNBE2 cell supernatant; conditions: Method 2, Table 3c, SKNBE2 cells carrying APP 695 wild type, overnight incubation
Description: (§1) Screening was carried out using SKNBE2 cells carrying the APP 695—wild type, grown in Dulbecco's Modified Eagle's Medium/Nutrient mixture F-12 (DMEM/NUT-mix F-12) (HAM) provided by Invitrogen (cat no. 10371-029) containing 5% Serum/Fe supplemented with 1% non-essential amino acids, 1-glutamine 2 mM, Hepes 15 mM, penicillin 50 U/ml (units/ml) en streptomycin 50 μg/ml. Cells were grown to near confluency.
(§2) The screening was performed using a modification of the assay as described in Citron et al (1997) Nature Medicine 3: 67. Briefly, cells were plated in a 384-well plate at 10^4 cells/well in Ultraculture (Lonza, BE12-725F) supplemented with 1% glutamine (Invitrogen, 25030-024), 1% non-essential amino acid (NEAA), penicillin 50 U/ml en streptomycin 50 μg/ml in the presence of test compound at different test concentrations. The cell/compound mixture was incubated overnight at 37° C., 5% CO2. The next day the media were assayed by two sandwich immuno-assays, for Aβ42 and Aβtotal.
(§3) Aβtotal and Aβ42 concentrations were quantified in the cell supernatant using the Aphalisa technology (Perkin Elmer). Alphalisa is a sandwich assay using biotinylated antibody attached to streptavidin coated donorbeads and antibody conjugated to acceptor beads. In the presence of antigen, the beads come into close proximity. The excitation of the donor beads provokes the release of singlet oxygen molecules that trigger a cascade of energy transfer in the acceptor beads, resulting in light emission. To quantify the amount of Aβ42 in the cell supernatant, monoclonal antibody specific to the C-terminus of Aβ42 (JRF/cAβ42/26) was coupled to the receptor beads and biotinylated antibody specific to the N-terminus of Aβ (JRF/AβN/25) was used to react with the donor beads. To quantify the amount of Aβtotal in the cell supernatant, monoclonal antibody specific to the N-terminus of Aβ (JRF/AβN/25) was coupled to the receptor beads and biotinylated antibody specific to the mid region of Aβ (biotinylated 4G8) was used to react with the donor beads.
(§4) To obtain the values reported in Table 3c, the data were calculated as percentage of the maximum amount of amyloid Beta 42 measured in the absence of the test compound. The sigmoidal dose response curves were analyzed using non-linear regression analysis with percentage of the control plotted against the log concentration of the compound. A 4-parameter equation was used to determine the IC50.

[2] = system: Aβtotal; experiment: Screening for γ-secretase-modulating activity, Method 2: Aβtotal Alphalisa on SKNBE2 cell supernatant; conditions: Method 2, Table 3c, SKNBE2 cells carrying APP 695 wild type, overnight incubation
Description: as §1, §2, §3, §4

[3] = system: Aβ42; experiment: Screening for γ-secretase-modulating activity, Method 1: Aβ42 sandwich ELISA on SKNBE2 cell media; conditions: SKNBE2 cells carrying APP 695 wild type
Description: as §1, with “Gibco” for “Invitrogen”, “31330-38)” for “10371-029)”, “acids.” for “acids, 1-glutamine 2 mM, Hepes 15 mM, penicillin 50 U/ml (units/ml) en streptomycin 50 μg/ml.”
(§5) The screening was performed using the assay as described in Citron et al (1997) Nature Medicine 3: 67. Briefly, cells were plated in a 96-well plate at about 10^5 cells/ml one day prior to addition of compounds. Compounds were added to the cells in Ultraculture (Lonza, BE12-725F) supplemented with 1% glutamine (Invitrogen, 25030-024) for 18 hours. The media were assayed by two sandwich ELISAs, for Aβ42 and Aβtotal. Toxicity of the compounds was assayed by WST-1 cell proliferation reagent (Roche, 1 644 807) according to the manufacturer's protocol.
To quantify the amount of Aβ42 in the cell supernatant, commercially available Enzyme-Linked-Immunosorbent-Assay (ELISA) kits were used (Innotest® β-Amyloid(1-42), Innogenetics N.V., Ghent, Belgium). The Aβ42 ELISA was performed essentially according to the manufacturer's protocol. Briefly, the standards (dilutions of synthetic Aβ1-42) were prepared in polypropylene Eppendorf with final concentrations of 8000 down to 3.9 pg/ml (1/2 dilution step). Samples, standards and blanks (100 μl) were added to the anti-Aβ42-coated plate supplied with the kit (the capture antibody selectively recognizes the C-terminal end of the antigen). The plate was allowed to incubate 3 h at 25° C. in order to allow formation of the antibody-amyloid complex. Following this incubation and subsequent wash steps a selective anti-Aβ-antibody conjugate (biotinylated 3D6) was added and incubated for a minimum of 1 hour in order to allow formation of the antibody-Amyloid-antibody-complex. After incubation and appropriate wash steps, a Streptavidine-Peroxidase-Conjugate was added, followed 30 minutes later by an addition of 3,3′,5,5′-tetramethylbenzidine (TMB)/peroxide mixture, resulting in the conversion of the substrate into a coloured product. This reaction was stopped by the addition of sulfuric acid (0.9 N) and the colour intensity was measured by means of photometry with an ELISA-reader with a 450 nm filter.
(§6) To obtain the values reported in Table 3a, the sigmoidal dose response curves were analysed by computerised curve-fitting, with percent of inhibition plotted against compound concentration. A 4-parameter equation (model 205) in XLfit was used to determine the IC50. The top and the bottom of the curve were fixed to 100 and 0, respectively, and the hill slope was fixed to 1. The IC50 represents the concentration of a compound that is required for inhibiting a biological effect by 50% (Here, it is the concentration where Aβ peptide level is reduced by 50%).
as §4, with “3b,” for “3c,”, “IC50. The values reported in Table 3b are averaged IC50 values.” for “IC50.”

[4] = system: Aβtotal; experiment: Screening for γ-secretase-modulating activity, Method 1: Aβtotal sandwich ELISA on SKNBE2 cell media; conditions: SKNBE2 cells carrying APP 695 wild type
Description: as §1, with “Gibco” for “Invitrogen”, “31330-38)” for “10371-029)”, “acids.” for “acids, 1-glutamine 2 mM, Hepes 15 mM, penicillin 50 U/ml (units/ml) en streptomycin 50 μg/ml.”
as §5
To quantify the amount of Aβtotal in the cell supernatant, samples and standards were added to a 6E10-coated plate. The plate was allowed to incubate overnight at 4° C. in order to allow formation of the antibody-amyloid complex. Following this incubation and subsequent wash steps a selective anti-Aβ-antibody conjugate (biotinylated 4G8) was added and incubated for a minimum of 1 hour in order to allow formation of the antibody-Amyloid-antibody-complex. After incubation and appropriate wash steps, a Streptavidine-Peroxidase-Conjugate was added, followed 30 minutes later by an addition of Quanta Blu fluorogenic peroxidase substrate according to the manufacturer's instructions (Pierce Corp., Rockford, Ill.).
as §6
as §4, with “3b,” for “3c,”, “IC50. The values reported in Table 3b are averaged IC50 values.” for “IC50.”

[5] = Table 3a, 18 hours, XLfit, top/bottom fixed to 100 and 0, hill slope 1
[6] = Table 3b, non-linear regression of % of control, averaged IC50 values
[7] = Homo sapiens, Table 3b, non-linear regression of % of control, averaged IC50 values

SMILES | IC50 [3, 5] [nM] | IC50 [3, 6] [nM] | IC50 [4, 5] [nM] | IC50 [4, 6] [nM] | other results
COc1cc(Nc2cccc3c2nc(C(C)c2ccc(Cl)cc2)n3C)ccc1-n1cnc(C)n1 (racemic) [Compound 122] |  |  |  |  | IC50 [1]: 372 nM; IC50 [2]: > 10000 nM
COc1cc(Nc2cccc3c2nc(Cc2ccc(F)cc2)n3C)ccc1-n1cnc(C)c1 [Compound 81] | 21 | 21 | > 1000 | > 1000 | 
COc1cc(-c2nc3c(Nc4ccc(-n5cncn5)c(F)c4)cccc3n2C)ccc1Cl [Compound 83] | 47 | 45 | > 3000 | > 3000 | 
COc1cc(Nc2cccc3c2nc(-c2cccc(OC)c2Cl)n3C)ccc1-n1cnc(C)n1 [Compound 84] | 141 | 141 | > 3000 | > 3000 | 
Cc1ncnn1-c1ccc(Nc2cccc3c2nc(-c2ccc(F)cc2)n3C(C)C)cc1 [Compound 88] | 58 | 72 | > 3000 | > 3000 | 
COc1cc(Nc2nccc3[nH]c(-c4ccc(F)cc4)nc23)ccc1-n1cnc(C)c1 [Compound 90] | 39 | 39 | > 1000 | > 5000 | 
COc1cc(Nc2nccc3c2nc(-c2ccc(F)cc2F)n3C)ccc1-n1cnc(C)n1 [Compound 98] | 357 | 331 | > 3000 | > 10000 | 
COc1cc(Nc2cccc3c2nc(COc2ccccc2)n3C)ccc1-n1ncnc1C [Compound 99] | 436 | 427 | > 3000 | > 10000 | 
Cc1cc2c(nc(-c3ccc(F)cc3)n2C)c(Nc2ccc(-n3ncnc3C)c(F)c2)n1 [Compound 100] | 653 | 661 | > 3000 | > 10000 | 
COc1cc(Nc2cccc3c2nc(CC(C)C)n3CC(F)(F)F)ccc1-n1cnc(C)n1 [Compound 105] | 129 | 129 | 2800 | 2500 | 
C=C(C)c1cc(Nc2ccc(-n3cnc(C)n3)c(OC)c2)c2nc(-c3ccc(F)cc3)n(C)c2n1 [Compound 109] |  |  |  |  | IC50 [3, 7]: 32 nM; IC50 [4, 7]: > 3000 nM
Cc1cn(-c2ccc(Nc3cc(C)nc4c3nc(-c3ccc(F)cc3)n4C)cc2F)cn1 [Compound 112] |  |  |  |  | IC50 ([1]; Homo sapiens): 19 nM; IC50 ([2]; Homo sapiens): > 10000 nM
COc1cc(Nc2cc(C)nc3c2nc(-c2ccc(F)cc2)n3C)ccc1-n1cnc(C)n1 [Compound 113] |  |  |  |  | IC50 ([1]; Homo sapiens): 35 nM; IC50 ([2]; Homo sapiens): > 10000 nM
COc1cc(Nc2cccc3c2nc(-c2ccc(F)cc2)n3C)ccc1-n1cnc(CO)c1 [Compound 118] |  | 69 |  | > 3000 | 
COCc1cn(-c2ccc(Nc3cccc4c3nc(-c3ccc(F)cc3)n4C)cc2OC)cn1 [Compound 119] |  |  |  |  | IC50 ([1]; Homo sapiens): 65 nM; IC50 ([2]; Homo sapiens): > 10000 nM
COc1cc(Nc2cccc3c2nc(C2(c4ccc(Cl)cc4)CC2)n3C)ccc1-n1cnc(C)n1 [Compound 123] |  |  |  |  | IC50 [1]: 145 nM; IC50 [2]: > 10000 nM
Cc1cn(-c2ccc(Nc3cccc4c3nc(-c3ccc(=O)n(C)c3)n4C)cc2F)cn1 [Compound 124] |  |  |  |  | IC50 [1]: 3890 nM; IC50 [2]: > 10000 nM
